According to US20070027165A1, “Fungicidal mixtures for controlling rice pathogens” (BASF Aktiengesellschaft, priority 2003, published 2007):

Tested on: Cochliobolus miyabeanus
Assay: activity against brown spot of rice caused by Cochliobolus miyabeanus, protective application
Format: in vivo
Settings: individual active compound, rice seedlings, assessed 6 days after inoculation
Method: The active compounds, separately or jointly, were prepared as a stock solution with 0.25% by weight of active compound in acetone or DMSO. 1% by weight of the emulsifier Uniperol® EL (wetting agent having emulsifying and dispersing action based on ethoxylated alkylphenols) was added to this solution, and the solution was diluted with water to the desired concentration.
Use example—activity against brown spot of rice caused by Cochliobolus miyabeanus, protective application
Leaves of potted rice seedlings of the cultivar “Tai-Nong 67” were sprayed to runoff point with an aqueous suspension of the concentration of active compound stated below. The next day, the plants were inoculated with an aqueous spore suspension of Cochliobolus miyabeanus. The test plants were then placed in climatized chambers at 22-24° C. and 95-99 % relative atmospheric humidity for six days. The extent of the development of the infection on the leaves was then determined visually.
Evaluation was carried out by determining the percentage of infected plants. These percentages were converted into efficacies.
The efficacy (E) is calculated as follows using Abbot's formula: E=(1−α/β)·100 α corresponds to the fungicidal infection of the treated plants in % and β corresponds to the fungicidal infection of the untreated (control) plants in %
An efficacy of 0 means that the infection level of the treated plants corresponds to that of the untreated control plants; an efficacy of 100 means that the treated plants are not infected.
The expected efficacies of mixtures of active compounds are determined using Colby's formula (R. S. Colby, Weeds, 15, 20-22, 1967) and compared with the observed efficacies.
Colby's formula: E=x+y−x·y/100 • E expected efficacy, expressed in % of the untreated control, when using the mixture of the active compounds A and B at the concentrations a and b • x efficacy, expressed in % of the untreated control, when using the active compound A at the concentration a • y efficacy, expressed in % of the untreated control, when using the active compound B at the concentration b

SMILES | Efficacy in % of the untreated control (1 ppm in the spray liquor) [%] | Efficacy in % of the untreated control (4 ppm in the spray liquor) [%]
CC1CCN(c2c(-c3c(F)cc(F)cc3F)c(Cl)nc3ncnn23)CC1 [I, 5-chloro-7-(4-methylpiperidin-1-yl)-6-(2,4,6-trifluorophenyl)-[1,2,4]triazolo[1,5-a]pyrimidine] | 8 | 
N#Cc1c[nH]cc1-c1cccc(Cl)c1Cl [II (fenpiclonil), 4-(2,3-dichlorophenyl)-1 H-pyrrole-3-carbonitrile] | 0 | 0
CC1CCN(c2c(-c3c(F)cccc3Cl)c(Cl)nc3ncnn23)CC1 [comparative compound A] | 20 | 
C[C@H](Nc1c(-c2c(F)cc(F)cc2F)c(Cl)nc2ncnn12)C(F)(F)F [comparative compound B] | 20 | 
